Experimental data published in patent US5488049A, “Method of treating learning and memory disorders using benzothiadiazide derivatives as nootropic agents” (FIDIA - Georgetown Institute for the Neuro-Sciences, priority 1993, dated 1996).
Entries after “also recorded” stand apart in the source; their conditions may differ. Where two headings read alike, the source gives them in different places.

How the values were obtained:
[1] = system: animals and humans; conditions: refs 1-3 (NMDA antagonists); refs 7-9 (aniracetam); cited from earlier work
[2] = system: AMPA receptors located on CAl pyramidal neuronal membranes; test: Slow bath perfusion, whole-cell: potentiation of glutamate-elicited current (with MK-801) in CAl pyramidal neurons of hippocampal slices; format: cell-based, rat
Description: (§1) Young rats (12-16 days old) were decapitated and the brains quickly removed and placed in ice-cold Ringer solution. Thin slices of hippocampus (250 μm) were then cut with a vibratome slicer (Lancer, St. Louis, Mo.) and kept in Ringer solution at 37° C. until use. The experiments were carried out at room temperature with the slice totally submerged in a 1 ml volume recording chamber and under continuous perfusion with Ringer solution at a rate of 6 ml/min using an upright Hoffman modulation contrast microscope (Carl Zeiss, Germany) equipped with a 40×water immersion objective.
(§2) Media and drug application. The external Ringer solution contained (in mM): NaCl 120; KCl 3.1; CaCl2 2; MgCl2 1; KH2 PO4 1; NaHCO3 26; glucose 2.7; and it was continuously bubbled with 95% O2 and 5% CO2. Patch pipettes were filled with a solution containing (in mM): K-gluconate 140; MgCl2 1; ATP.Mg 2; EGTA 0.5; HEPES-KOH 10, pH 7.2. All the drugs under investigation were applied through the recording chamber perfusion system via parallel inputs having a common entry into the chamber. Agonist application was attained using two different systems that allowed a slow or a rapid solution change. Slow solution changes were used during recordings in whole-cell configuration and were obtained by exchanging the solution of the recording chamber within a few seconds. Fast solution changes were obtained with the use of the Y-shaped tubing method that allows complete exchange of solution in less than 10 ms, and is described in detail by Murase et al. (1989).
IDRA compounds (see above for structures) were first dissolved in 50 μl of DMSO, then […] of 1N NaOH and water (sufficient to reach a volume of 1 ml and a concentration of 10 mM). The final concentration was reached diluting the stock solution with Ringer solution.
(§3) Ionic currents in whole-cell configuration and outside-out excised membrane patches were monitored using the patch clamp technique (15).
The action diazoxide and the IDRA analogues were tested on the desensitization of AMPA receptors located on CAl pyramidal neuronal membranes in rat hippocampal slices. In order to evaluate whether the compounds under study increase the intensity of currents generated by the activation of non-NMDA receptors, these receptors were activated with glutamate in the presence of 5 μM MK-801 to block completely the ionic current elicited by glutamate acting on the NMDA receptor channels present in CAl pyramidal neurons. Three distinct methods of drug application were employed: 1) slow bath perfusion of agonist and drugs while recording in whole-cell mode (onset 30s); ii) fast application to outside-out patches of a fixed concentration of agonist with a double barrel pipette (onset<1 ms) in the presence and the absence of drugs; iii) fast perfusion (onset<6 ms) of increasing concentrations of agonist and drugs applied with the Y-tubing device to outside-out patches excised from neurons in brain slices and to voltage-clamped neurons in primary culture.
. The most efficacious (1 mM) derivative was IDRA21, which elicited a potentiation of 797±220% (n=4 cells), followed by IDRA 20 with a potentiation of 292±100% (n=4 cells) (FIG. 2). […]

[3] = system: kainate-activated current; test: Selectivity: ionic current elicited by 20 μM kainate; format: cell-based, rat; conditions: for effect on kainate-activated current: 1 mM compound, 20 μM kainate; for effect on kainate responses at doses that decreased AMPA desensitization: all doses that decrease/inhibit AMPA desensitization
Description: as §1, §2, §3

[4] = system: AMPA receptor; conditions: cited from earlier work
[5] = system: rats; test: Water maze: drug action on learning and retention in rats; format: in vivo, rat; conditions: IDRA 21 15 mg/kg
Description: Rats (male, 250 g) were trained once a day in maze A (See FIG. 8B forced maze) for 2 consecutive days. The day of the experiment, after a first exposure to maze A, IDRA 21 (15 mg/kg) Aniracetam (500 mg/kg) or vehicle (cont) were administered per oral gavage and 30 min later the animals were exposed once again to Maze A. After 30 min of interatrial rest, rats were exposed to Maze B (see FIG. 8C open maze).
(§4) The water maze apparatus was adapted from Kant et al., (16), and consists of three concentric squares placed inside a 5 ft plastic pool (FIG. 6). The walls of the maze are 50 cm in height and are constructed from black opaque plastic to allow for tracking of the animal with an overhead camera. The alleys between the walls are 16 cm wide. In the center of each wall there is a removable doorway. The opening of doorways allows for the construction of mazes with an increasing number of potential error possibilities. (See diagram for Maze A and Maze B, FIG. 6). The maze is located in a room 10'×15' at constant temperature (18° C.) adjacent to the vivarium. The room is illuminated with overhead lights which also serve as spatial cues. Additional spatial cues are provided by the position of the investigator and a number of small white x's placed within specific locations upon the walls of the maze. The maze is filled with water (18°)C. to a depth of 25 cm.
(§5) Seven days prior to drug studies, rats were tested in Maze A (forced maze) on two consecutive days. Pretesting with the "forced" maze enabled the assessment of the animals' general motor, sensory and motivational abilities, and facilitated the exclusion of those animals unable to meet pretesting criteria. Performance was assessed by determining either swim time, errors committed, or path length measured with a computerized recording device. Errors are defined as whole body entry into alleys not leading directly to the exit platform (i.e., shaded portions in FIG. 6). Rats were excluded from the study if their swim path length and/or number of errors were two standard deviations above the mean […] of the entire group. During the first two trials, the rats were placed into the center of the maze and given a maximum of 180 secs to find the "exit platform" located at the "finish" (FIG. 6). The time required, the number of errors, and the path length were recorded for each trial. […] Rats meeting the criteria were randomly divided into groups. On the day of the experiment, a single trial was run (Maze A) in order to establish a baseline of performance. Following drug administration, the rats were again tested once on Maze A to establish a baseline of post-treatment performance. Following an additional interatrial interval of 30 min., the rats were tested on Maze B.

[6] = system: rats; test: Water maze: drug action on alprazolam-disrupted learning behavior in rats; format: in vivo, rat; conditions: for antagonism of alprazolam amnesic effect: doses equimolar to IDRA 21 / (+) IDRA 21
Description: Rats (male 250 g b.w.) were trained two days, once a day, in maze A (See insert A). […] Rats were exposed to a new maze configuration (Maze B) in 4 successive trials 15, 30, 45, and 60 min after the i.p. injections.
as §4, §5
In these experiments, rats were trained in Maze B 15, 30, 45 and 60 min. after drug injection.

[7] = system: rats; test: as above; format: in vivo, rat; conditions: oral 5 mg/kg
[8] = system: AMPA receptor; test: Fast application with double barrel pipette: AMPA receptor desensitization in outside-out patches from CAl hippocampal pyramidal neurons; format: cell-based, rat; conditions: 5 μM; 1 mM glutamate with 5 μM MK-801
Description: as §1, §2
Briefly, a polyethylene tubing (1 mm i.d.) is bent in a U-shaped, and another fine polyethylene tubing (50 μi.d.) and 10 mm length) is inserted into a small hole in the U-tubing making the tip of the Y-tubing. Solutions are fed to the Y-tubing by gravity, and negative pressure facilitates exchange of the solution. The tip of the Y-tubing is positioned 100 μm from the cell investigated, and upon opening and closing of a valve that controls the negative pressure, it was possible to respectively change rapidly and apply a number of different test solutions. This method was used to apply agonists to excised outside-out membrane patches. More rapid drug applications were used to apply agonists to excised outside-out membrane patches, and were obtained through a double-barrelled pipette positioned close to the recording pipette containing the membrane patch. […] The agonist was applied for a period of 150 ms and the time necessary for a complete exchange of the solution was less than 1 ms as measured at the opening of a patch pipette containing different dilutions of the drugs under study. […]
Ionic currents in whole-cell configuration and outside-out excised membrane patches were monitored using the patch clamp technique (15). […]

[9] = system: EPSCs elicited in CAl pyramidal neurons; test: Excitatory postsynaptic currents (EPSCs) in CAl pyramidal neurons in hippocampal slices on stimulation of Schaffer collateral afferents; format: cell-based, rat; conditions: in vitro; compared with (+) IDRA 21
Description: as §1, §3
Traces were filtered at 3 KHz (-3 dB, 8-pole, lowpass Bessel filter, Frequency Devices), and stored in an LSI 11/73 computer (INDEC System, Sunnyvale, Calif.) after digitization (10 KHz) with a Data Translation analog to digital converter. Decay time constants of EPSC and glutamate-activated currents were determined from exponential fitting with the 11/73 system by using an entirely automated least-squares procedures (see Vicini and Schuetze, 1985, for further details). This method uses a Simplex algorithm (Caceci and Cacheris, 1984) to fit the data to either a single or double exponential equation of the form I(t)=If exp(-t/tauf)+Is exp(-t/taus), where If and Is are the amplitudes of the sIPSC fast and slow components, and tauf and taus are their respective decay time constants. Peak amplitudes were measured at the absolute maximum of the currents, taking into account the noise of the baseline and noise around the peak. Rise times were measured as the time elapsed from 20 to 80% of the peak amplitude of the response.
The action of nootropic drugs on the excitatory postsynaptic currents (EPSCs) elicited in CAl pyramidal neurons in hippocampal slices was investigated by stimulation of the Schaffer collateral afferents.

For `c1ccc(C2(N3CCCCC3)CCCCC2)cc1` [phencyclidine], which “effect on learning and memory (background)” value (“effect on learning and memory” for short) [1] is on record?
Its value is “produce profound alterations in learning, disrupt memory consolidation and retrieval in animals and man”.

With `CC1Nc2cc(Cl)ccc2S(=O)(=O)N1` (stereo not shown) [IDRA 20, 6-chloro-3-methyl-3,4-dihydro-2H 1,2,4-benzothiadiazine S-S dioxide] as the compound, how does the “potentiation of glutamate-elicited current” value ([2]; 1 mM compound, 50 μM glutamate, 5 μM MK-801, whole-cell, slow perfusion) read?
Its value is 292±100%.

With `CNC1(c2ccccc2Cl)CCCCC1=O` (stereo not shown) [ketamine] as the compound, how does the “effect on learning and memory” value [1] read?
Its value is “produce profound alterations in learning, disrupt memory consolidation and retrieval in animals and man”.

With `O=S1(=O)NC(C2CC3C=CC2C3)Nc2ccc(Cl)cc21` (stereo not shown) [IDRA 23, 6-chloro-3-bicyclo[2.2.1]-hept-2-ene-3,4-dihydro-2H 1,2,4-benzothiadiazine S-S dioxide] as the compound, how does the “efficacy compared with diazoxide (potentiation of glutamate current), in words” value ([2]; 1 mM, 50 μM glutamate) read?
Its value is “either equally or less efficacious than diazoxide”.

For `COc1ccc(C(=O)N2CCCC2=O)cc1` [aniracetam], which “effect on kainate-activated current” value [3] is on record?
Its value is “failed to potentiate the kainate-activated current”.

And the “effect on kainate responses at doses that decreased AMPA desensitization” value [3]?
The value was “failed to affect kainate responses”.

And the “AMPA receptor desensitization / modulation (background)” value [4]?
Its value is “attenuating AMPA receptor spontaneous desensitization”.

What about the “potency and duration of action (background)” value [4] of the same compound?
The value was “low potency and short lasting action”.

What about the “AMPA receptor desensitization / modulation (background)” value ([4]; listed as Aniracetam) of the same compound?
Its value is “decreases AMPA receptor desensitization”.

And the “improvement of water maze performance” value ([5]; FIG. 8A, Aniracetam 500 mg/kg oral)?
The value was “improve water performance in rats”.

And the “significance (P) of water maze performance vs control” value ([5]; Aniracetam 500 mg/kg per oral gavage, at least 5 rats)?
Its value is < 0.05.

And the “effect on learning and memory” value [1]?
The value was “enhancing learning and memory (nootropic action) in animals”.

What does the source list for `CC1Nc2ccc(Cl)cc2S(=O)(=O)N1` (single isomer, unassigned; (-)) [(-) IDRA 21]?
biological activity of enantiomers (summary) ([6]; summary statement): inactive; prevention of alprazolam-induced amnesia (enantiomers) [7]: inactive

With `NS(=O)(=O)c1cccc2c1c([N+](=O)[O-])cc1[nH]c(=O)c(=O)[nH]c12` [NBQX, 1,2,3,4-tetrahydroxy-6-nitro-2,3-dioxo-benzo-[f]quinoxaline-7-sulfonamide, reference compound] as the compound, how does the “block of transient peak and sustained plateau currents” value [8] read?
The value was “completely blocked”.

With `NS(=O)(=O)c1cc2c(cc1Cl)N=CNS2(=O)=O` [chlorothiazide, reference compound] as the compound, how does the “antagonism of alprazolam amnesic effect” value [6] read?
The value was “inactive”.

Which “effect on learning and memory” value [1] does the source give for `C[C@]12N[C@H](Cc3ccccc31)c1ccccc12` [MK-801] here?
The value was “produce profound alterations in learning, disrupt memory consolidation and retrieval in animals and man”.

With `CC1=NS(=O)(=O)c2cc(Cl)ccc2N1` [diazoxide, reference compound] as the compound, how does the “antagonism of alprazolam amnesic effect” value [6] read?
Its value is “inactive; also recorded: unable to antagonize alprazolam-induced impairment of learning behavior”.

What about the “effect on kainate-activated current” value [3] of the same compound?
Its value is “increased the current”.

And the “effect on kainate responses at doses that decreased AMPA desensitization” value [3]?
The value was “potently potentiated kainate responses”.

And the “efficacy in increasing excitatory synaptic strength in CAl pyramidal neurons” value [9]?
Its value is “at least as efficacious as (+) IDRA 21”.

What about the “potentiation of glutamate current, in words” value ([2]; 100 μM) of the same compound?
The value was “inactive”.

And the “potentiation of glutamate-elicited current” value ([2]; 500 μM compound, mean±SE, N=4 cells)?
The value was 152±0.2%.

What about the “maximal efficacy reached, in words” value ([2]; 1 mM, maximal dose testable without vehicle effect) of the same compound?
The value was “failed to reach maximal efficacy at 1 mM”.

And the “potentiation of glutamate current, dose dependence” value ([2]; up to 1 mM)?
Its value is “dose-dependent potentiation”.
